Measurements as given in doi:10.1101/2021.01.13.426390v3 (biorxiv, 2021).

Target: T1, AGR3 (Homo sapiens, UniProt Q8TD06)
T1 sequence (Q8TD06 22-166): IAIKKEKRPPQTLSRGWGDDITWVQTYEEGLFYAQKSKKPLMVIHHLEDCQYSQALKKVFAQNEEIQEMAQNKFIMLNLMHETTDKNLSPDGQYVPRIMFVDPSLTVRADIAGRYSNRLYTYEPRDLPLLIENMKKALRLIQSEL
Test: biotin probe labelling, non-reducing SDS-PAGE, streptavidin-AP blot
Format: binding
Conditions: covalent; labelled compound; 30 uM probe, pH 7.4, 37 C

## O=C(CCCC[C@@H]1SC[C@@H]2NC(=O)N[C@@H]21)NCC(=O)N1C[C@@H]2CS(=O)(=O)SC[C@H]2C1 (racemic) [Biotin-GlyPyrDTDO]
  biotin probe labelling, non-reducing SDS-PAGE, streptavidin-AP blot: it was also labeled by Biotin-GlyPyrDTDO
